Experimental data from ChEMBL document CHEMBL3046058, “Insecticidal activity of huperzine A from the New Zealand clubmoss, Lycopodium varium” (2002).
In brackets after ≈: the same amount, converted by molar mass.

Assays:
Assay type in all cases: functional
Tineola bisselliella [1] = test: Insecticidal activity against larvae of Tineola bisselliella assessed as survival at 430 to 4500 ppm after 14 days
Lucilia cuprina [2] = test: Insecticidal activity against newly hatched larvae of Lucilia cuprina assessed as survival at 450 to 5130 ppm after 24 hr
Eurhopalus australis [3] = test: Insecticidal activity against larvae of Anthrenocerus australis assessed as survival after 14 days; settings: 336 h, read-out: LD50 (the source's name)
Tineola bisselliella [4] = test: Insecticidal activity against larvae of Tineola bisselliella assessed as survival after 14 days; settings: 336 h, read-out: LD50 (the source's name)
Lucilia cuprina [5] = test: Insecticidal activity against newly hatched larvae of Lucilia cuprina assessed as mortality after 24 hr; settings: read-out: LD50 (the source's name)
Eurhopalus australis [6] = test: Antifeedant activity against larvae of Anthrenocerus australis assessed as amount of food intake at 63 ppm after 14 days (reference value: 55.5 mg)
Eurhopalus australis [7] = test: Insecticidal activity against larvae of Anthrenocerus australis assessed as survival at 125 to 4000 ppm after 14 days

C/C=C1\[C@H]2C=C(C)C[C@]1(N)c1ccc(=O)[nH]c1C2 [HUPERZINE A]
Activity (Tineola bisselliella [1]): 3% | Activity (Lucilia cuprina [2]): 8% | LC50 (Eurhopalus australis [3]): 110 µg/mL (≈ 454 µM) | LC50 (Tineola bisselliella [4]): 630 µg/mL (≈ 2600 µM) | LC50 (Lucilia cuprina [5]): 2380 µg/mL (≈ 9820 µM) | Activity (Eurhopalus australis [6]): 1.5 mg | Activity (Eurhopalus australis [7]): 3%
